Experimental data as given in US10597388B2, “Pyridazinone herbicides” (FMC CORPORATION, priority 2014, dated 2020).

Assays:
Experiment in all cases: Test E greenhouse herbicide test, pre- and postemergence
Format in all cases: in vivo
[1] = test system: nutsedge, yellow (yellow nutsedge, Cyperus esculentus); conditions: Preemergence
Procedure, shortened: (§1)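 Visual rating vs untreated controls, 0 = no effect, 100 = complete control, after 14–21 d greenhouse. Pre: seeded silt loam treated with surfactant-containing solvent formulation. Post: 1–4-leaf plants (2–18 cm) in peat/vermiculite medium.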

kochia (Kochia scoparia) = conditions: Preemergence
Procedure, shortened: as §1

[2] = test system: sandbur (southem sandbur, Cenchrus echinatus)
Procedure, shortened: as §1

soybean (Glycine max) = test system: soybean (Glycine max)
Procedure, shortened: as §1

[3] = test system: foxtail, green (green foxtail, Setaria viridis); conditions: Preemergence
Procedure, shortened: as §1

[4] = test system: beggarticks (hairy beggarticks, Bidens pilosa)
Procedure, shortened: as §1

[5] = test system: panicum, fall (fall panicum, Panicum dichotomiflorum)
Procedure, shortened: as §1

[6] = test system: barnyardgrass (Echinochloa crus-galli)
Procedure, shortened: as §1

[7] = test system: lambsquarters (Chenopodium album); conditions: Preemergence
Procedure, shortened: as §1

[8] = test system: Italian ryegrass (Lolium multiflorum)
Procedure, shortened: as §1

[9] = 62 g ai/ha, scale 0 to 100 (0 no effect, 100 complete control)
[10] = 125 g ai/ha, scale 0 to 100 (0 no effect, 100 complete control)
[11] = 16 g ai/ha, scale 0 to 100, 0 no effect, 100 complete control
[12] = 31 g ai/ha, scale 0 to 100, 0 no effect, 100 complete control
[13] = 250 g ai/ha, visual, scale 0 no effect to 100 complete control
[14] = 125 g ai/ha, visual, scale 0 no effect to 100 complete control
[15] = 62 g ai/ha, Postemergence, scale 0 to 100 (0 no effect, 100 complete control)
[16] = 62 g ai/ha, Preemergence, scale 0 to 100 (0 no effect, 100 complete control)
[17] = 125 g ai/ha, Postemergence, scale 0 to 100 (0 no effect, 100 complete control)
[18] = 125 g ai/ha, Preemergence, scale 0 to 100 (0 no effect, 100 complete control)
[19] = 250 g ai/ha, Postemergence, scale 0 to 100 (0 no effect, 100 complete control)
[20] = Postemergence, 16 g ai/ha, visual, scale 0 no effect to 100 complete control
[21] = Postemergence, 31 g ai/ha, visual, scale 0 no effect to 100 complete control
[22] = Preemergence, 16 g ai/ha, scale 0 to 100, 0 no effect, 100 complete control
[23] = Preemergence, 31 g ai/ha, scale 0 to 100, 0 no effect, 100 complete control
[24] = Preemergence, 250 g ai/ha, visual, scale 0 no effect to 100 complete control
[25] = Preemergence, 125 g ai/ha, visual, scale 0 no effect to 100 complete control

Compound: Cc1ccc2sc(C)c(-c3c(O)c(C)nn(C)c3=O)c2c1 [Compound 1, 4-(2,5-dimethylbenzo[b]thien-3-yl)-5-hydroxy-2,6-dimethyl-3(2H)-pyridazinone]
- Plant response rating, Nutsedge, Yellow [1, 9]: 15
- Plant response rating, Nutsedge, Yellow [1, 10]: 50
- Plant response rating, Nutsedge, Yellow [1, 11]: 0
- Plant response rating, Nutsedge, Yellow [1, 12]: 10
- Plant response rating, Nutsedge, Yellow [1, 13]: 70
- Plant response rating, Kochia (kochia (Kochia scoparia); [9]): 5
- Plant response rating, Kochia (kochia (Kochia scoparia); [11]): 0
- Plant response rating, Kochia (kochia (Kochia scoparia); [12]): 0
- Plant response rating, Kochia (kochia (Kochia scoparia); [14]): 35
- Plant response rating, Kochia (kochia (Kochia scoparia); [13]): 85
- Plant response rating, Sandbur [2, 15]: 30
- Plant response rating, Sandbur [2, 16]: 20
- Plant response rating, Sandbur [2, 17]: 30
- Plant response rating, Sandbur [2, 18]: 70
- Plant response rating, Sandbur [2, 19]: 30
- Plant response rating, Sandbur [2, 20]: 0
- Plant response rating, Sandbur [2, 21]: 10
- Plant response rating, Sandbur [2, 22]: 0
- Plant response rating, Sandbur [2, 23]: 10
- Plant response rating, Sandbur [2, 24]: 70
- Plant response rating, Soybean (soybean (Glycine max); [15]): 10
- Plant response rating, Soybean (soybean (Glycine max); [16]): 15
- Plant response rating, Soybean (soybean (Glycine max); [17]): 15
- Plant response rating, Soybean (soybean (Glycine max); [18]): 40
- Plant response rating, Soybean (soybean (Glycine max); [19]): 20
- Plant response rating, Soybean (soybean (Glycine max); [20]): 0
- Plant response rating, Soybean (soybean (Glycine max); [21]): 0
- Plant response rating, Soybean (soybean (Glycine max); [22]): 0
- Plant response rating, Soybean (soybean (Glycine max); [23]): 0
- Plant response rating, Soybean (soybean (Glycine max); [24]): 75
- Plant response rating, Foxtail, Green [3, 9]: 70
- Plant response rating, Foxtail, Green [3, 11]: 0
- Plant response rating, Foxtail, Green [3, 12]: 15
- Plant response rating, Foxtail, Green [3, 14]: 90
- Plant response rating, Foxtail, Green [3, 13]: 90
- Plant response rating, Beggarticks [4, 15]: 98
- Plant response rating, Beggarticks [4, 16]: 100
- Plant response rating, Beggarticks [4, 17]: 100
- Plant response rating, Beggarticks [4, 19]: 100
- Plant response rating, Beggarticks [4, 20]: 70
- Plant response rating, Beggarticks [4, 21]: 85
- Plant response rating, Beggarticks [4, 22]: 100
- Plant response rating, Beggarticks [4, 23]: 100
- Plant response rating, Beggarticks [4, 25]: 100
- Plant response rating, Beggarticks [4, 24]: 100
- Plant response rating, Panicum, Fall [5, 15]: 75
- Plant response rating, Panicum, Fall [5, 16]: 90
- Plant response rating, Panicum, Fall [5, 17]: 80
- Plant response rating, Panicum, Fall [5, 18]: 95
- Plant response rating, Panicum, Fall [5, 19]: 85
- Plant response rating, Panicum, Fall [5, 20]: 70
- Plant response rating, Panicum, Fall [5, 21]: 75
- Plant response rating, Panicum, Fall [5, 22]: 65
- Plant response rating, Panicum, Fall [5, 23]: 75
- Plant response rating, Panicum, Fall [5, 24]: 100
- Plant response rating, Barnyardgrass [6, 15]: 20
- Plant response rating, Barnyardgrass [6, 16]: 0
- Plant response rating, Barnyardgrass [6, 17]: 25
- Plant response rating, Barnyardgrass [6, 19]: 35
- Plant response rating, Barnyardgrass [6, 20]: 10
- Plant response rating, Barnyardgrass [6, 21]: 15
- Plant response rating, Barnyardgrass [6, 22]: 0
- Plant response rating, Barnyardgrass [6, 23]: 0
- Plant response rating, Barnyardgrass [6, 25]: 0
- Plant response rating, Barnyardgrass [6, 24]: 20
- Plant response rating, Lambsquarters [7, 9]: 98
- Plant response rating, Lambsquarters [7, 11]: 65
- Plant response rating, Lambsquarters [7, 12]: 65
- Plant response rating, Lambsquarters [7, 14]: 100
- Plant response rating, Lambsquarters [7, 13]: 100
- Plant response rating, Ryegrass, Italian [8, 15]: 50
- Plant response rating, Ryegrass, Italian [8, 16]: 100
- Plant response rating, Ryegrass, Italian [8, 17]: 65
- Plant response rating, Ryegrass, Italian [8, 18]: 100
- Plant response rating, Ryegrass, Italian [8, 19]: 90
- Plant response rating, Ryegrass, Italian [8, 20]: 20
- Plant response rating, Ryegrass, Italian [8, 21]: 35
- Plant response rating, Ryegrass, Italian [8, 22]: 70
- Plant response rating, Ryegrass, Italian [8, 23]: 95
- Plant response rating, Ryegrass, Italian [8, 24]: 100

Compound: C#CCOC(=O)Oc1c(C)nn(C)c(=O)c1-c1c(C)sc2ccc(C)cc12 [Compound 87]
- Plant response rating, Nutsedge, Yellow [1, 9]: 60
- Plant response rating, Nutsedge, Yellow [1, 10]: 65
- Plant response rating, Nutsedge, Yellow [1, 12]: 0
- Plant response rating, Nutsedge, Yellow [1, 13]: 60
- Plant response rating, Kochia (kochia (Kochia scoparia); [9]): 100
- Plant response rating, Kochia (kochia (Kochia scoparia); [10]): 100
- Plant response rating, Kochia (kochia (Kochia scoparia); [12]): 65
- Plant response rating, Kochia (kochia (Kochia scoparia); [13]): 100
- Plant response rating, Sandbur [2, 16]: 65
- Plant response rating, Sandbur [2, 18]: 75
- Plant response rating, Sandbur [2, 23]: 25
- Plant response rating, Sandbur [2, 24]: 85
- Plant response rating, Soybean (soybean (Glycine max); [16]): 0
- Plant response rating, Soybean (soybean (Glycine max); [18]): 0
- Plant response rating, Soybean (soybean (Glycine max); [23]): 0
- Plant response rating, Soybean (soybean (Glycine max); [24]): 0
- Plant response rating, Foxtail, Green [3, 9]: 20
- Plant response rating, Foxtail, Green [3, 10]: 60
- Plant response rating, Foxtail, Green [3, 12]: 20
- Plant response rating, Foxtail, Green [3, 13]: 80
- Plant response rating, Beggarticks [4, 16]: 100
- Plant response rating, Beggarticks [4, 18]: 100
- Plant response rating, Beggarticks [4, 23]: 90
- Plant response rating, Beggarticks [4, 24]: 100
- Plant response rating, Panicum, Fall [5, 16]: 90
- Plant response rating, Panicum, Fall [5, 18]: 100
- Plant response rating, Panicum, Fall [5, 23]: 95
- Plant response rating, Panicum, Fall [5, 24]: 98
- Plant response rating, Barnyardgrass [6, 16]: 0
- Plant response rating, Barnyardgrass [6, 18]: 10
- Plant response rating, Barnyardgrass [6, 23]: 0
- Plant response rating, Barnyardgrass [6, 24]: 35
- Plant response rating, Lambsquarters [7, 9]: 100
- Plant response rating, Lambsquarters [7, 10]: 100
- Plant response rating, Lambsquarters [7, 12]: 100
- Plant response rating, Lambsquarters [7, 13]: 100
- Plant response rating, Ryegrass, Italian [8, 16]: 95
- Plant response rating, Ryegrass, Italian [8, 18]: 98
- Plant response rating, Ryegrass, Italian [8, 23]: 75
- Plant response rating, Ryegrass, Italian [8, 24]: 100

Compound: CC(=O)Oc1c(C)nn(C)c(=O)c1-c1c(C)sc2c(C)cc(C)cc12 [Compound 27]
- Plant response rating, Nutsedge, Yellow [1, 9]: 15
- Plant response rating, Nutsedge, Yellow [1, 10]: 98
- Plant response rating, Nutsedge, Yellow [1, 12]: 10
- Plant response rating, Nutsedge, Yellow [1, 13]: 80
- Plant response rating, Kochia (kochia (Kochia scoparia); [9]): 25
- Plant response rating, Kochia (kochia (Kochia scoparia); [12]): 0
- Plant response rating, Kochia (kochia (Kochia scoparia); [14]): 80
- Plant response rating, Kochia (kochia (Kochia scoparia); [13]): 100
- Plant response rating, Sandbur [2, 16]: 40
- Plant response rating, Sandbur [2, 18]: 90
- Plant response rating, Sandbur [2, 23]: 30
- Plant response rating, Sandbur [2, 24]: 90
- Plant response rating, Soybean (soybean (Glycine max); [16]): 0
- Plant response rating, Soybean (soybean (Glycine max); [18]): 0
- Plant response rating, Soybean (soybean (Glycine max); [23]): 0
- Plant response rating, Soybean (soybean (Glycine max); [24]): 0
- Plant response rating, Foxtail, Green [3, 9]: 100
- Plant response rating, Foxtail, Green [3, 12]: 75
- Plant response rating, Foxtail, Green [3, 14]: 100
- Plant response rating, Foxtail, Green [3, 13]: 100
- Plant response rating, Beggarticks [4, 16]: 100
- Plant response rating, Beggarticks [4, 23]: 90
- Plant response rating, Beggarticks [4, 25]: 100
- Plant response rating, Beggarticks [4, 24]: 100
- Plant response rating, Panicum, Fall [5, 16]: 100
- Plant response rating, Panicum, Fall [5, 18]: 100
- Plant response rating, Panicum, Fall [5, 23]: 100
- Plant response rating, Panicum, Fall [5, 24]: 100
- Plant response rating, Barnyardgrass [6, 16]: 50
- Plant response rating, Barnyardgrass [6, 23]: 15
- Plant response rating, Barnyardgrass [6, 25]: 80
- Plant response rating, Barnyardgrass [6, 24]: 95
- Plant response rating, Lambsquarters [7, 9]: 100
- Plant response rating, Lambsquarters [7, 12]: 100
- Plant response rating, Lambsquarters [7, 14]: 100
- Plant response rating, Lambsquarters [7, 13]: 100
- Plant response rating, Ryegrass, Italian [8, 16]: 95
- Plant response rating, Ryegrass, Italian [8, 18]: 100
- Plant response rating, Ryegrass, Italian [8, 23]: 80
- Plant response rating, Ryegrass, Italian [8, 24]: 100
